Reference: patent US6399654B1, “Biflavanoids and derivatives thereof as antiviral agents” (priority 1995, dated 2002)
Read-outs that look alike come from different tables or passages of the source.

What was measured:
[1] = system: HSV-2; assay: HSV-2 CPE inhibition in HFF cells; conditions: HFF Cells
[2] = system: Influenza A (H3N2) Beijing/32/92; assay: microbe, parasite or virus in culture; format: cell-based, influenza A virus; conditions: Influenza A (H3N2) Beijing/32/92
[3] = system: Parainfluenza Type 3 Virus; assay: organism not typed; format: cell-based
[4] = system: Respiratory Syncytial Virus; assay: microbe, parasite or virus in culture; format: cell-based; conditions: Respiratory Syncytial Virus
[5] = system: Madin Darby canine kidney (MDCK) cells; conditions: for CPE Inhibition IC50 (50% cell inhibitory (cytotoxic) concentration): Influenza A (H1N1) test
[6] = system: HSV-1; assay: HSV-1 CPE inhibition in HFF cells; conditions: HFF Cells
[7] = system: Influenza A (H3N2) Beijing/32/92; assay: microbe, parasite or virus in culture; format: cell-based, influenza A virus; conditions: Influenza A (H3N2) Beijing/32/92; remark: listed apart in the source
[8] = system: Influenza A (H1N1) Texas/36/91; assay: microbe, parasite or virus in culture; format: cell-based, influenza A virus; conditions: Influenza A (H1N1) Texas/36/91
[9] = system: Influenza B Panama/45/90; assay: microbe, parasite or virus in culture; format: cell-based; conditions: Influenza B Panama/45/90
[10] = system: VZV; assay: VZV plaque reduction assay in HFF cells; conditions: for VZV Plaque Reduction EC50 / VZV SI (CC50/EC50): HFF Cells
[11] = system: HCMV; assay: HCMV CPE inhibition in HFF cells; conditions: HFF Cells
[12] = system: Respiratory Syncytial Virus; assay: microbe, parasite or virus in culture; format: cell-based; conditions: Respiratory Syncytial Virus; remark: listed apart in the source
[13] = system: Parainfluenza Type 3 Virus; assay: organism not typed; format: cell-based; conditions: Parainfluenza Type 3 Virus
[14] = system: African green monkey kidney (MA-104) cells; conditions: for CPI Inhibition IC50 (cytotoxic): Parainfluenza Type 3 Virus test; for CPE Inhibition IC50 (cytotoxic): Respiratory Syncytial Virus test
[15] = system: HFF Cells
[16] = system: Hepatitis B Virus (HBV); assay: Inhibition of HBV replication in 2.2.15 cells, extracellular (virion) HBV DNA; conditions: for SI (CC50/EC90), HBV Virion: selective index;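 as to all read-outs here: extracellular virion HBV DNA in culture medium measured by slot blot hybridization with a 32P-labeled HBV probe, quantified against HBV DNA standards, after 9 days of daily dosing, compared with day 0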
Description: Test compounds were added daily for a nine continuous day period; the culture medium was collected and stored for analysis of extracellular (virion) HBV DNA after 0, 3, 6, and 9 days of treatment. The treated cells were lysed 24 hours following day 9 of treatment for the analysis of intracellular HBV genomic forms. The overall levels of HBV DNA (both extracellular and intracellular DNA) and the relative rate of HBV replication (intracellular DNA) were analyzed quantitatively. The analysis was performed using blot hybridization techniques and [^32P]-labeled HBV-specific probes. The HBV DNA levels were measured by comparison to known amounts of HBV DNA standards applied to every nitrocellulose membrane (gel or slot blot). An AMBIS beta scanner, which measures the radioactive decay of the hybridized probes directly from the nitrocellulose membranes, was used for the quantitative analysis. Standard curves, generated by multiple analyses, were used to correlate CPM measurements made by the beta scanner with relative levels of target HBV DNA. The levels of HBV virion DNA released into the culture medium were analyzed by a slot blot hybridization procedure. HBV DNA levels were then compared to those at day 0 to determine the effect of the test compound. A known positive drug was evaluated in parallel with test compounds in each test.
Determination of therapeutic concentrations (EC50 and EC90) and toxicity concentrations (IC50) were determined as previously described (90). Stock solutions of text drugs were prepared in DMSO. Culture medium was changed daily and analyzed for extracellular HBV DNA after nine days of continuous drug exposure. Extracellular HBV DNA was extracted from the culture media and analyzed by a slot blot hydridization technique, using a ^32P-labeled Eco RI HBV DNA fragment, as previously described (91), and quantitated via comparison to HBV standards on a nitrocellulose filter, using an AMBIS beta scanner. Toxicity was determined by measuring inhibition of neutral red dye uptake. […] Effective concentration values for individual agents are the mean of six cultures per concentration point. Toxicity values are the mean of three cultures per concentration point.

[17] = system: African green monkey kidney (BSC-1) cells; conditions: Measles Virus test
[18] = target: T1, HIV-1 RT (Human immunodeficiency virus type 1 group M subtype B, UniProt P03366); assay: Anti-HIV-1 RT assay (recombinant enzyme); format: biochemical; conditions: for Anti-HIV-1 RT IC50: values in parentheses or in words
T1 construct: made in house; host or cells: Escherichia coli

[19] = system: Adenovirus Type 5; assay: Adenovirus type 5 neutral red dye uptake in A549 cells; format: cell-based; conditions: Adenovirus Type 5
[20] = system: Human lung carcinoma (A549) cells; conditions: Adenovirus Type 5 test
[21] = system: Adenovirus Type 5; assay: microbe, parasite or virus in culture; format: cell-based
[22] = system: Influenza A (H1N1) Texas/36/91; assay: microbe, parasite or virus in culture; format: cell-based, influenza A virus; conditions: Influenza A (H1N1) Texas/36/91; remark: listed apart in the source
[23] = system: Madin Darby canine kidney (MDCK) cells
[24] = system: Measles Virus; assay: microbe, parasite or virus in culture; format: cell-based; conditions: Measles Virus
[25] = system: African green monkey kidney (BSC-1) cells
[26] = system: Human lung carcinoma (A549) cells
[27] = system: Measles Virus; assay: Measles virus neutral red dye uptake in BSC-1 cells; format: cell-based
[28] = system: Influenza B Panama/45/90; assay: microbe, parasite or virus in culture; format: cell-based

CC(=O)Oc1ccc([C@@H]2CC(=O)c3c(cc(OC(C)=O)c(-c4c(OC(C)=O)cc(OC(C)=O)c5c4O[C@H](c4ccc(OC(C)=O)cc4)CC5=O)c3OC(C)=O)O2)cc1 [Rhusflavanone hexaacetate (10), rhusflavanone hexaacetate]
HSV-2 CPE Inhibition EC50 [1]: >4.0 µg/mL | HSV-2 SI (CC50/EC50) [1]: <4.6 | Neutral Red EC50 [2]: 5.4 µg/mL | Neutral Red EC50 [3]: 32 µg/mL | Neutral Red EC50 [4]: 19 µg/mL | CPE Inhibition IC50 (50% cell inhibitory (cytotoxic) concentration) [5]: 7.2 µg/mL | CPE Inhibition IC50 (cytotoxic) ([5]; Influenza A (H3N2) test): 5.6 µg/mL | CPE Inhibition IC50 (cytotoxic) ([5]; Influenza B test): 4.2 µg/mL | HSV-1 CPE Inhibition EC50 [6]: >4.0 µg/mL | HSV-1 SI (CC50/EC50) [6]: <4.6 | CPE Inhibition EC50 [7]: >10 µg/mL | CPE Inhibition EC50 [8]: >10 µg/mL | CPE Inhibition EC50 [9]: >10 µg/mL | VZV Plaque Reduction EC50 [10]: 11.3 µg/mL | VZV SI (CC50/EC50) [10]: 4.1 | HCMV CPE Inhibition EC50 [11]: >4.0 µg/mL | HCMV SI (CC50/EC50) [11]: <3.3 | CPE Inhibition EC50 [12]: >10 µg/mL | CPI Inhibition EC50 [13]: >10 µg/mL | CPI Inhibition IC50 (cytotoxic) [14]: 22 µg/mL | CPE Inhibition IC50 (cytotoxic) [14]: 13 µg/mL | HCMV CPE Inhibition CC50 [15]: 13.4 µg/mL | HSV-1 CPE Inhibition CC50 [15]: 18.5 µg/mL | HSV-2 CPE Inhibition CC50 [15]: 18.5 µg/mL | VZV Plaque Reduction CC50 [15]: 46.7 µg/mL | anti-HBV activity (in words) ([16]; 2.2.15 cells): moderate anti-HBV activity | SI (CC50/EC90), HBV Virion [16]: 2.8 | CPI Inhibition IC50 (cytotoxic) [17]: <4 µg/mL | Anti-HIV-1 RT % Inhibition at 200 μg/ml [18]: 0.00% | Anti-HIV-1 RT IC50 [18]: Inactive | Neutral Red EC50 [19]: 19 µg/mL | CPE Inhibition IC50 (cytotoxic) [20]: 22 µg/mL | CPE Inhibition EC50 [21]: >10 µg/mL | Neutral Red EC50 [22]: 5.6 µg/mL | Neutral Red IC50 (cytotoxic) ([23]; Influenza A (H1N1) test): 5.7 µg/mL | Neutral Red IC50 (cytotoxic) ([23]; Influenza A (H3N2) test): 5.3 µg/mL | CPI Inhibition EC50 [24]: ˜3 ug/ml | Neutral Red IC50 (cytotoxic) [25]: <11 µg/mL | Neutral Red IC50 (cytotoxic) [26]: 26 µg/mL | Neutral Red EC50 [27]: <10 µg/mL

CC(=O)Oc1ccc([C@@H]2CC(=O)c3c(cc(OC(C)=O)c(-c4c(OC(C)=O)cc5c(c4OC(C)=O)C(=O)C[C@@H](c4ccc(OC(C)=O)cc4)O5)c3OC(C)=O)O2)cc1 [Succedaneaflavanone hexaacetate (12), succedaneaflavanone hexaacetate]
HSV-2 CPE Inhibition EC50 [1]: >4.0 µg/mL | HSV-2 SI (CC50/EC50) [1]: <4.4 | Neutral Red EC50 [2]: 5.6 µg/mL | Neutral Red EC50 [3]: >32 µg/mL | Neutral Red EC50 [4]: 6 µg/mL | CPE Inhibition IC50 (50% cell inhibitory (cytotoxic) concentration) [5]: 8.2 µg/mL | CPE Inhibition IC50 (cytotoxic) ([5]; Influenza A (H3N2) test): 12 µg/mL | CPE Inhibition IC50 (cytotoxic) ([5]; Influenza B test): 12 µg/mL | HSV-1 CPE Inhibition EC50 [6]: >4 µg/mL | HSV-1 SI (CC50/EC50) [6]: <4.4 | CPE Inhibition EC50 [7]: 8.8 µg/mL | CPE Inhibition EC50 [8]: 5.6 µg/mL | CPE Inhibition EC50 [9]: 5.4 µg/mL | activity against VZV (in words) [10]: moderately active | VZV Plaque Reduction EC50 [10]: 7.1 µg/mL | VZV SI (CC50/EC50) [10]: 9.6 | HCMV CPE Inhibition EC50 [11]: >4.0 µg/mL | HCMV SI (CC50/EC50) [11]: <3.5 | Neutral Red EC50 [28]: 5.9 µg/mL | CPE Inhibition EC50 [12]: >3 µg/mL | CPI Inhibition EC50 [13]: >10 µg/mL | CPI Inhibition IC50 (cytotoxic) [14]: ˜14 ug/ml | CPE Inhibition IC50 (cytotoxic) [14]: 4 µg/mL | HCMV CPE Inhibition CC50 [15]: 14.4 µg/mL | HSV-1 CPE Inhibition CC50 [15]: 17.7 µg/mL | HSV-2 CPE Inhibition CC50 [15]: 17.7 µg/mL | VZV Plaque Reduction CC50 [15]: 68.0 µg/mL | anti-HBV activity (in words) ([16]; 2.2.15 cells): moderate anti-HBV activity | EC50 ([16]; read-out: EC50 (50% effective dose), HBV Virion, 2.2.15 cells, extracellular (virion) HBV DNA, 9 days treatment): 3.5 µM | EC90 ([16]; read-out: EC90 (90% effective dose), HBV Virion, 2.2.15 cells, extracellular (virion) HBV DNA, 9 days treatment): 128 µM | SI (CC50/EC90), HBV Virion [16]: 1.9 | CPI Inhibition IC50 (cytotoxic) [17]: <4 µg/mL | Anti-HIV-1 RT % Inhibition at 200 μg/ml [18]: 0.00% | Anti-HIV-1 RT IC50 [18]: Inactive | Neutral Red EC50 [19]: 6 µg/mL | CPE Inhibition IC50 (cytotoxic) [20]: 19 µg/mL | CPE Inhibition EC50 [21]: 20 µg/mL | Neutral Red EC50 [22]: 7.4 µg/mL | Neutral Red IC50 (cytotoxic) ([23]; Influenza A (H1N1) test): 7.4 µg/mL | Neutral Red IC50 (cytotoxic) ([23]; Influenza A (H3N2) test): 5.6 µg/mL | Neutral Red IC50 (cytotoxic) ([23]; Influenza B test): 5.9 µg/mL | CPI Inhibition EC50 [24]: ˜3.2 ug/ml | Neutral Red IC50 (cytotoxic) [25]: <200 µg/mL | Neutral Red IC50 (cytotoxic) [26]: 6 µg/mL | Neutral Red EC50 [27]: <2 µg/mL
